Measurements: PubChem BioAssay AID1845207 (Molecular Pharmacology Branch, DTP, NCI, 2023)
pIC50: −log10 of the molar value. Several values for one entry are separate records, joined by “and”; a condition that tells them apart may be missing. Equal values may be shown once.

System: NCI-H1876 tumor spheroid viability
Assay: Anticancer human tumor NCI-H1876 cell line growth inhibition;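 note: spheroids exposed to compounds for seven days before the viability read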;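 for viability, T/C: percent of DMSO vehicle control viability so 100% = vehicle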
Settings: spheroids with HUVEC and MSC; for viability, T/C: stronger effect = lower value; active = viability on the fitted dose curve at most 10% of control; inactive = the rest
How it was run: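 Complex spheroids of malignant cells with endothelial cells and mesenchymal stem cells; agents alone or combined, from near clinical Cmax (or 10 microM if unknown) down in half-log steps, 0.25% DMSO final.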

[1] = curve of first compound, second compound 0.003 µM
[2] = curve of first compound, second compound 0.00949 µM
[3] = curve of first compound, second compound 0.03 µM
[4] = curve of first compound, second compound 0.0949 µM
[5] = curve of first compound, second compound 0.3 µM
[6] = second compound 0.003 µM, first compound 0.0316 µM
[7] = second compound 0.003 µM, first compound 0.1 µM
[8] = second compound 0.003 µM, first compound 0.316 µM
[9] = second compound 0.003 µM, first compound 1 µM
[10] = second compound 0.003 µM, first compound 3.16 µM
[11] = second compound 0.003 µM, first compound 10 µM
[12] = second compound 0.00949 µM, first compound 0.0316 µM
[13] = second compound 0.00949 µM, first compound 0.1 µM
[14] = second compound 0.00949 µM, first compound 0.316 µM
[15] = second compound 0.00949 µM, first compound 1 µM
[16] = second compound 0.00949 µM, first compound 3.16 µM
[17] = second compound 0.00949 µM, first compound 10 µM
[18] = second compound 0.03 µM, first compound 0.0316 µM
[19] = second compound 0.03 µM, first compound 0.1 µM
[20] = second compound 0.03 µM, first compound 0.316 µM
[21] = second compound 0.03 µM, first compound 1 µM
[22] = second compound 0.03 µM, first compound 3.16 µM
[23] = second compound 0.03 µM, first compound 10 µM
[24] = second compound 0.0949 µM, first compound 0.0316 µM
[25] = second compound 0.0949 µM, first compound 0.1 µM
[26] = second compound 0.0949 µM, first compound 0.316 µM
[27] = second compound 0.0949 µM, first compound 1 µM
[28] = second compound 0.0949 µM, first compound 3.16 µM
[29] = second compound 0.0949 µM, first compound 10 µM
[30] = second compound 0.3 µM, first compound 0.0316 µM
[31] = second compound 0.3 µM, first compound 0.1 µM
[32] = second compound 0.3 µM, first compound 0.316 µM
[33] = second compound 0.3 µM, first compound 1 µM
[34] = second compound 0.3 µM, first compound 3.16 µM
[35] = second compound 0.3 µM, first compound 10 µM

CC(C)n1c(=O)n(C)c2cnc3cc(F)c(-c4ccc(OCCCN5CCCCC5)nc4)cc3c21 + CC[C@@]1(O)C(=O)OCc2c1cc1n(c2=O)Cc2cc3c(CN(C)C)c(O)ccc3nc2-1
> 7.50: pIC50 [1] | pIC50 [2] | pIC50 [3] | pIC50 [4] | pIC50 [5]
active: viability, T/C [12] 5.02% | viability, T/C [13] 4.95% | viability, T/C [14] 5.93% | viability, T/C [15] 7.51% | viability, T/C [16] 10.2% | viability, T/C [17] 11.6% | viability, T/C [18] 2.64% | viability, T/C [19] 2.9% | viability, T/C [20] 2.81% | viability, T/C [21] 3.34% | viability, T/C [22] 3.91% | viability, T/C [23] 4.32% | viability, T/C [24] 2.03% | viability, T/C [25] 2.07% | viability, T/C [26] 2.33% | viability, T/C [27] 2.86% | viability, T/C [28] 2.99% | viability, T/C [29] 3.42% | viability, T/C [30] 1.97% | viability, T/C [31] 2.19% | viability, T/C [32] 1.74% | viability, T/C [33] 2.16% | viability, T/C [34] 2.86% | viability, T/C [35] 2.71%
inactive: viability, T/C [6] 25.1% | viability, T/C [7] 25.5% | viability, T/C [8] 34.6% | viability, T/C [9] 45.5% | viability, T/C [10] 44.1% | viability, T/C [11] 28.1%

CNCc1ccc(-c2cc(-c3nc(-c4ccc(S(=O)(=O)C(C)C)cc4)cnc3N)on2)cc1
6.90 and 7.02 and 6.04: pIC50 (curve of compound)
10.2% and 0.26% and 20.5%: viability, T/C (compound 3 µM)
inactive: viability, T/C (compound 0.00949 µM) 97.7% and 86.9% and 104% | viability, T/C (compound 0.03 µM) 76.6% and 72.2% and 99.9% | viability, T/C (compound 0.0949 µM) 59.2% and 49.9% and 105% | viability, T/C (compound 0.3 µM) 31.1% and 27.1% and 92.3% | viability, T/C (compound 0.949 µM) 16.1% and 10.4% and 48.3%

Cn1ncnc1[C@H]1c2n[nH]c(=O)c3cc(F)cc(c23)N[C@@H]1c1ccc(F)cc1 + Cn1nnc2c(C(N)=O)ncn2c1=O
inactive: viability, T/C (second compound 1 µM, first compound 0.00949 µM) 70.1% | viability, T/C (second compound 1 µM, first compound 0.03 µM) 54.6% | viability, T/C (second compound 1 µM, first compound 0.0949 µM) 39% | viability, T/C (second compound 1 µM, first compound 0.3 µM) 25.1% | viability, T/C (second compound 1 µM, first compound 0.949 µM) 10.8% | viability, T/C (second compound 3.16 µM, first compound 0.00949 µM) 72.4% | viability, T/C (second compound 3.16 µM, first compound 0.03 µM) 52.1% | viability, T/C (second compound 3.16 µM, first compound 0.0949 µM) 52.3% | viability, T/C (second compound 3.16 µM, first compound 0.3 µM) 20% | viability, T/C (second compound 3.16 µM, first compound 0.949 µM) 50% | viability, T/C (second compound 3.16 µM, first compound 3 µM) 15.5% | viability, T/C (second compound 10 µM, first compound 0.00949 µM) 56.8% | viability, T/C (second compound 10 µM, first compound 0.03 µM) 38.1% | viability, T/C (second compound 10 µM, first compound 0.0949 µM) 47.2% | viability, T/C (second compound 10 µM, first compound 0.3 µM) 15% | viability, T/C (second compound 10 µM, first compound 0.949 µM) 33.5% | viability, T/C (second compound 10 µM, first compound 3 µM) 5.45% | viability, T/C (second compound 31.6 µM, first compound 0.00949 µM) 29.2% | viability, T/C (second compound 31.6 µM, first compound 0.03 µM) 19.2% | viability, T/C (second compound 31.6 µM, first compound 0.0949 µM) 14.5% | viability, T/C (second compound 31.6 µM, first compound 0.3 µM) 12% | viability, T/C (second compound 100 µM, first compound 0.00949 µM) 13.8% | viability, T/C (second compound 100 µM, first compound 0.03 µM) 10.8% | viability, T/C (second compound 100 µM, first compound 0.0949 µM) 11.6% | viability, T/C (second compound 100 µM, first compound 0.3 µM) 9.19% | viability, T/C (second compound 100 µM, first compound 0.949 µM) 33.3% | viability, T/C (second compound 100 µM, first compound 3 µM) 4.67%
> 8.02: pIC50 (curve of first compound, second compound 31.6 µM) | pIC50 (curve of first compound, second compound 100 µM)
7.22: pIC50 (curve of first compound, second compound 3.16 µM)
7.80: pIC50 (curve of first compound, second compound 10 µM)
7.36: pIC50 (curve of first compound, second compound 1 µM)
active: viability, T/C (second compound 1 µM, first compound 3 µM) 5.26% | viability, T/C (second compound 31.6 µM, first compound 0.949 µM) 8.61% | viability, T/C (second compound 31.6 µM, first compound 3 µM) 4.86%

CC1COCCN1c1cc(-c2ccnn2C)c2ccnc(-c3ccn[nH]3)c2n1 (configuration not stated) + CC[C@@]1(O)C(=O)OCc2c1cc1n(c2=O)Cc2cc3c(CN(C)C)c(O)ccc3nc2-1
> 7.50: pIC50 [1] | pIC50 [2] | pIC50 [3] | pIC50 [4] | pIC50 [5]
inactive: viability, T/C [6] 16.2%
active: viability, T/C [7] 9.61% | viability, T/C [8] 6.33% | viability, T/C [9] 5.32% | viability, T/C [10] 2.8% | viability, T/C [11] 3.12% | viability, T/C [12] 6.81% | viability, T/C [13] 5.86% | viability, T/C [14] 5.29% | viability, T/C [15] 3.16% | viability, T/C [16] 2.62% | viability, T/C [17] 4.77% | viability, T/C [18] 3.3% | viability, T/C [19] 3.5% | viability, T/C [20] 3.31% | viability, T/C [21] 2.97% | viability, T/C [22] 2.42% | viability, T/C [23] 2.82% | viability, T/C [24] 2.58% | viability, T/C [25] 2.23% | viability, T/C [26] 2.26% | viability, T/C [27] 2.14% | viability, T/C [28] 2.41% | viability, T/C [29] 2.01% | viability, T/C [30] 2.18% | viability, T/C [31] 2.1% | viability, T/C [32] 2.02% | viability, T/C [33] 2.7% | viability, T/C [34] 1.91% | viability, T/C [35] 1.92%
